Experiments:
Assay type in all cases: cell-based, human
U-2 OS cells [1] = test: Metaphase-TIFs in cells overexpressing FANCM variants; details: stable overexpression
Source text: (§1) (a) Schematic of FANCM domain interactions, mutations or deletions. For clarity, domains have been color coded by functional role (bottom panel). (b) Quantitation of metaphase-TIFs in U-2 OS cells stably overexpressing wild-type (FANCM+) or FANCM mutants. Scatterplot bars represent the mean±SEM. Out of 3 experiments, n≥110 metaphases scored for each mutant, *p<0.05, **p<0.005, Mann-Whitney test. (c) Quantitation of fragile telomeres in U-2 OS cells stably overexpressing wild-type (FANCM+) or FANCM mutants. Scatterplot bars represent the mean±SEM. Out of 3 experiments, n>100 metaphases scored for each mutant, *p<0.05, **p<0.005, Mann-Whitney test. (d) Representative dot blots and quantitation of C-circle assays in U-2 OS cells stably overexpressing wild-type (FANCM+) or FANCM domain mutants. C-circles were normalized to the mean of vector control. Error bars represent mean±SEM from n=3 experiments, *p<0.05, **p<0.005, Student's t-test. (e) Single molecule analysis of telomeric extension events (top panel) and length of extension events (bottom panel) in U-2 OS cells stably overexpressing wild-type (FANCM+) or FANCM domain mutants. Error bars represent mean±SEM of n≥350 fibers out of 3 experiments, *p<0.05, **p<0.005, Student's t-test.
(§2) FIG. 23. Defects in ALT phenotype suppression are exacerbated by overexpression of a double-mutant (DM) FANCM, in which both the MM2 domain (FF>AA) and the translocase domain (K117R) of FANCM are mutated. (a) Representative dot blots and quantitation of C-circle assays in U-2 OS cells stably overexpressing wild-type (WT) or FANCM domain mutants (K117R, FF>AA; DM). C-circles were normalized to the mean of empty vector control (EV). Error bars represent mean±SEM from n=3 experiments, *p<0.05, **p<0.005, Student's t-test. (b) Quantitation of APB frequency in U-2 OS cells overexpressing wild-type (WT) or FANCM mutants. Scatterplot bars represent the mean±SEM. Out of three experiments, n=150 cells were scored for each mutant, **p<0.005, Mann-Whitney test. (c) Quantitation of metaphase-TIFs in U-2 OS cells stably overexpressing wild-type (WT) or FANCM mutants. Scatterplot bars represent the mean±SEM. Out of three experiments, n=120 metaphases scored for each mutant, *p<0.05, **p<0.005, Mann-Whitney test. All statistical comparisons are relative to EV control.
(§3) Empty vector and wild-type FANCM (pCMV6-Myc-DDK) constructs were obtained from Origene Technologies. Wild type FANCM (SEQ ID NO: 2) and FANCM mutants (SEQ ID NOs: 19 to 28) were cloned into the pLenti-C-Myc-DDK-IRES-Neo backbone (Origene Technologies) by restriction enzyme subcloning of gene blocks synthesized by Integrated DNA Technologies (IDT). Lentivirus was produced by the Vector and Genome Engineering Facility (Children's Medical Research Institute). For stable overexpression, cells were transduced with lentivirus, allowed to recover for 24 h, and subject to G418 selection. Cells were maintained in G418 to ensure sustained overexpression.
(§4) Indirect IF and telomere FISH were performed on both interphase nuclei and metaphase spreads. For interphase IF experiments, cells were grown on coverslips or LabTek chamber slides (Thermo Scientific). Slides were prepared as described in Sobinoff et al., 2017. Cells on coverslips were washed twice with PBS, permeabilized with KCM buffer (120 mM KCl, 20 mM NaCl, 10 mM Tris pH 7.5, 0.1% Triton), washed again with PBST and PBS, then fixed with ice-cold 4% formaldehyde PBS solution at room temperature for 10 min. […]

U-2 OS cells [2] = test: Fragile telomeres in cells overexpressing FANCM variants; details: stable overexpression
Source text: as §1, §3
as §4, with “min. Coverslips were blocked with antibody-dilution buffer (20 mM Tris-HCl, pH 7.5, 2% (w/v) BSA, 0.2% (v/v) fish gelatin, 150 mM NaCl, 0.1% (v/v) Triton X-100 and 0.1% (w/v) sodium azide) and 0.1 mg/ml RNaseA for 30 min at 37° C.” for “min.”

U-2 OS cells [3] = test: C-circle assay in cells overexpressing FANCM variants; details: stable overexpression, compared to vector control
Source text: as §1, §2, §3
C-circles were amplified with Phi29 polymerase using dATP, dTTP and dGTP overnight. Products were dot blotted onto Biodyne B membranes (Pall) and pre-hybridised in PerfectHyb Plus (Sigma) for at least 30 min. Radiolabeled telomeric C-probe was then added and blots were hybridized overnight at 37° C. (Henson et al., 2009). Blots were washed with 0.5×SSC, 0.1% SDS three times for 5 min each then exposed to phosphor screen. Imaging was performed on the Typhoon FLA 7000 system (GE Healthcare) with a PMT of 750 V.

U-2 OS cells [4] = test: APB frequency and APB telomere intensity in cells overexpressing FANCM variants; details: overexpression
Source text: (a) Western immunoblotting of stable wild-type FANCM (FANCM+) or FANCM mutant overexpression in U-2 OS cells. […] (b) TRF analysis of U-2 OS cells overexpressing wild-type (FANCM+) or FANCM mutants. Gels were hybridized under native and denatured conditions with radiolabelled telomeric probes to detect the C-strand and G-strand. (c) Tukey boxplots of APB frequency (top panel) and mean APB telomere intensity (bottom panel) in U-2 OS cells overexpressing wild-type (FANCM+) or FANCM mutants. Out of 3 experiments, n=150 cells scored per variant, *p<0.05, **p<0.005, Mann-Whitney test.
as §2, §3
Indirect IF and telomere FISH were performed on both interphase nuclei and metaphase spreads. For interphase IF experiments, cells were grown on coverslips or LabTek chamber slides (Thermo Scientific). Slides were prepared as described in Sobinoff et al., 2017. Cells on coverslips were washed twice with PBS, permeabilized with KCM buffer (120 mM KCl, 20 mM NaCl, 10 mM Tris pH 7.5, 0.1% Triton), washed again with PBST and PBS, then fixed with ice-cold 4% formaldehyde PBS solution at room temperature for 10 min. Coverslips were blocked with antibody-dilution buffer (20 mM Tris-HCl, pH 7.5, 2% (w/v) BSA, 0.2% (v/v) fish gelatin, 150 mM NaCl, 0.1% (v/v) Triton X-100 and 0.1% (w/v) sodium azide) and 0.1 mg/ml RNaseA for 30 min at 37° C. Cells were incubated with primary antibodies (Supplementary Table 1) for 1 h at 37° C. or 2 h at room temperature, then incubated with 1:1,000 dilution of appropriate Alexa Fluor conjugated secondary antibodies (Thermo Scientific). Coverslips were rinsed with PBS then fixed with 4% (v/v) formaldehyde at room temperature prior to telomere FISH. Coverslips were subjected to a graded ethanol series (75% for 2 min, 85% for 2 min, and 100% for 2 min) and allowed to air-dry. […]

Substance	telomere dysfunction (metaphase-TIFs) (U-2 OS cells [1])	number of fragile telomeres (telomere fragility) (U-2 OS cells [2])	C-circle levels (U-2 OS cells [3])	number of APBs (U-2 OS cells [4])
MID: FANCM MID domain mutant (SEQ ID NO: 21) substituted at V749G/H751G	significantly increased	significantly increased	–	–
DM: double mutant FANCM with both the K117R substitution and the FF>AA double substitution (SEQ ID NO:35)	enhanced telomere dysfunction	–	significantly greater increase in C-circles	greater increase in the number of APBs
wild-type FANCM: wild type FANCM (SEQ ID NO: 2) stably overexpressed by lentivirus	significant decrease	significant decrease	significant decrease in C-circle generation	–
HhH: FANCM HhH domain mutant (SEQ ID NO: 28), deletion at amino acid residues 1971-2048	–	–	did not cause a change in C-circle levels	–
ERCC4: FANCM ERCC4 domain mutant (SEQ ID NO: 27), deletion at amino acid residues 1815-1922	–	–	did not cause a change in C-circle levels	–

Reference: patent US20230149507A1, “TREATMENT OF ALT CANCERS” (INSTITUTO DE MEDICINA MOLECULAR JOÃO LOBO ANTUNES, priority 2019, published 2023)
